Patent US7358249B2, “Heterocyclic compounds having inhibitory activity against HIV integrase” (Shionogi & Co., Ltd., priority 2002, dated 2008)

How the values were obtained:
HIV integrase = HIV integrase (Human immunodeficiency virus type 1 group M subtype B, UniProt P04585); assay: integrase inhibition assay (microtiter plate, substrate DNA / target DNA); type: biochemical; conditions: integrase 30 pmol, incubated at 30° C. for 1 hour, OD at 405 nm, concentration at percent inhibition 50%; for IC50: read-out: MIA, IC50 (ug/ml) (converted)
Description: The inhibitory activities against integrase of the presnt compounds were determined by the assay described below.
(1) Preparation of DNA Solutions
Substrate DNA and target DNA synthesized by Amersham Pharmacia Biotech, which sequences were indicated below, were dissolved in KTE buffer (composition: 100 mM KCl, 1 mM EDTA, 10 mM Tris-HCl (pH 7.6)) at a concentration of 2 pmol/μl and 5 pmol/μl, respectively. The DNA solutions were heated and then slowly cooled so that they were annealed with each complement.
(Sequence of Substrate DNA)
(2) Calculations of the percent inhibitions (IC50 values of test compounds)
Streptavidin, obtained from Vector Laboratories, was dissolved in 0.1 M carbonate buffer (composition: 90 mM Na2CO3, 10 mM NaHCO3) at a concentration of 40 μg/ml. After coating each well of microtiter plates (obtained from NUNC) with 50 μl of the above solution at 4° C. over night, each well was washed twice with PBS (composition: […], 0.27 mM KCl, 0.43 mM Na2HPO4, 0.14 mM KH2PO4) and blocked with 300 μl of 1% skim milk in PBS for 30 min. Additionally, each well was washed twice with PBS and added with 50 μl of the substrate DNA solution (2 pmol/μl). The microtiter plates were kept at room temperature for 30 min. Then, each well was washed twice with PBS and once with H2O.
Subsequently, to the each well prepared above were added 45 μl of the reaction buffer prepared from 12 μl of the buffer (composition: 150 mM MOPS (pH 7.2), 75 mM MnCl2, 50 mM 2-mercaptoethanol, 25% glycerol, 500 μg/ml bovine serum albumin-fraction V), 1 μl of target DNA (5 pmol/μ), and 32 μl of the distilled water. Additionally, 6 μl of either a test compound in DMSO or DMSO for positive control (PC) was mixed with the above reaction buffer, then 9 μl of an integrase solution (30 pmol) was added thereto and the mixture was mixed well. To the well of negative control (NC) was added 9 μl of the integrase dilution buffer (composition: 20 mM MOPS (pH7.2), 400 mM potassium glutamate, 1 mM EDTA, 0.1% NP-40, 20% glycerol, 1 mM DTT, 4 M urea).
The microtiter plates were incubated at 30° C. for 1 hour. The reaction solution was removed and each well was washed twice with PBS. Subsequently, each well of the microtiter plates was filled with 100 μl of anti-digoxigenin antibody labeled with alkaline phosphatase (Sheep Fab fragment: obtained from Boehringer) and incubated at 30° C. for 1 hour. Then, each well was washed twice with 0.05% Tween20 in PBS and once with PBS. Next, 150 μl of the Alkaline phosphatase reaction buffer (composition: 10 mM p-Nitrophenylphosphate (obtained from Vector Laboratories), 5 mM MgCl2, 100 mM NaCl, 100 mM Tris-HCl (pH 9.5)) was added to each well. The microtiter plates were incubated at 30° C. for 2 hours and the reaction was terminated by the addition of 50 μl of 1 N NaOH solution. The optical density (OD) at 405 nm of each well was measured and the percent inhibition was determined by the following expression. The percent inhibition (%)=100[1−{(C abs.−NC abs.)/(PC abs.−NC abs.)}]
C abs.; the OD of the well of the test compound
NC abs.: the OD of the negative control (NC)
PC abs.: the OD of the positive control (PC)
When the percent inhibition (%) is X % at a concentration of x μg/ml and the percent inhibition (%) is Y % at a concentration of y μg/ml, one of which is more than 50% and the other is less than 50%, IC50 can be determined by the following expression. IC50 (μg/ml)=x−{(X−50)(x−y)/(X−Y)}
Compound No. in the Table 1 is the same as compound No. of the above Examples.

Structure (SMILES)	IC50 (HIV integrase) [µM]	melting point [°C]	MIA, IC50 (HIV integrase) [µg/mL]
COC(=O)c1ncc2cc(Cc3ccc(F)cc3)cnc2c1O [Compound A-2, Methyl 3-(4-fluorobenzyl)-8-hydroxy-1,6-naphthylidine-7-carboxylate]	0.416	218 to 219	–
COC(=O)c1nc(NS(C)(=O)=O)c2cc(Cc3ccc(F)cc3)cnc2c1O [Compound A-9, Methyl 3-(4-fluorobenzyl)-8-hydroxy-5-methanesulfonylamino-1,6-naphthylidine-7-carboxylate]	0.222	205 to 210	–
COC(=O)c1nc(NC(C)=O)c2cc(Cc3ccc(F)cc3)cnc2c1O [Compound A-10, Methyl 5-acetylamino-3-(4-fluorobenzyl)-8-hydroxy-1,6-naphthylidine-7-carboxylate]	0.379	263 to 267	–
COC(=O)c1nc(C(=O)OC)c2cc(Cc3ccc(F)cc3)cnc2c1O [Compound A-15, Dimethyl 3-(4-fluorobenzyl)-8-hydroxy-1,6-naphthylidine-5,7-dicarboxylate]	0.783	191 to 194	–
COC(=O)c1nc(C#CCO)c2cc(Cc3ccc(F)cc3)cnc2c1O [Compound A-18, Methyl 3-(4-fluorobenzyl)-8-hydroxy-5-(3-hydroxy-1-propynyl)-1,6-naphthylidine-7-carboxylate]	0.655	205 to 208	–
CCC(=O)c1ncc2cc(Cc3ccc(F)cc3)cnc2c1O [Compound A-19, 1-[3-(4-fluorobenzyl)-8-hydroxy-1,6-naphthylidin-7-yl]propan-1-one]	–	–	0.12
COC(=O)c1nc(N2CCCCS2(=O)=O)c2cc(Cc3ccc(F)cc3)cnc2c1O [Compound A-22, Methyl 3-(4-fluorobenzyl)-5-(1,1-dioxido-1,2-thiazinan-2-yl)-8-hydroxy-1,6-naphthylidine-7-carboxylate]	0.427	–	–
COC(=O)c1nc(NS(=O)(=O)N(C)C)c2cc(Cc3ccc(F)cc3)cnc2c1O [Compound A-26, Methyl 5-[(dimethylamino)sulfonyl]-amino-3-(4-fluorobenzyl)-8-hydroxy-1,6-naphthylidine-7-carboxylate]	0.345	159 to 160	–
COCCC(=O)Nc1nc(C(=O)OC)c(O)c2ncc(Cc3ccc(F)cc3)cc12 [Compound A-34, 3-(4-Fluorobenzyl)-8-hydroxy-5-(3-methoxy-1-propionyl)amino[1,6]naphthylidine-7-carboxylic acid methyl ester]	0.701	205 to 206	–
CCOC(=O)Nc1nc(C(=O)OC)c(O)c2ncc(Cc3ccc(F)cc3)cc12 [Compound A-42, 5-[(Ethoxycarbonyl)amino]-3-(4-fluorobenzyl)-8-hydroxy[1,6]naphthylidine-7-carboxylic acid methyl ester]	0.576	247 to 249	–
COC(=O)c1nc(C#CCNS(C)(=O)=O)c2cc(Cc3ccc(F)cc3)cnc2c1O [Compound A-50, 3-(4-Fluorobenzyl)-8-hydroxy-5-[3-(methanesulfonyamino)propyn-1-yl][1,6]naphthylidine-7-carboxylic acid methyl ester]	0.248	223 to 225	–
COC(=O)c1nc(C(=O)N2CCN(C)CC2)c2cc(Cc3ccc(F)cc3)cnc2c1O [Compound A-54, 5-(4-Methylpiperadine-1-carbonyl)-3-(4-fluorobenzyl)-8-hydroxy[1,6]naphthylidine-7-carboxylic acid methyl ester]	1.3	226 to 227	–
COC(=O)c1nc(NC(=O)c2ccco2)c2cc(Cc3ccc(F)cc3)cnc2c1O [Compound A-66, 3-(4-Fluorobenzyl)-5-(frane-2-carbonyl)amino-8-hydroxy[1,6]naphthylidine-7-carboxylic acid methyl ester]	0.688	200 to 202	–
COCC(C)OC(=O)c1ncc2cc(Cc3ccc(F)cc3)cnc2c1O (stereo not drawn) [Compound A-79, 3-(4-Fluorobenzyl)-8-hydroxy[1,6]naphthylidine-7-carboxylic acid [2-(1-methoxy)propyl]ester]	0.351	130 to 131	–
CC(=O)N1CCC(OC(=O)c2ncc3cc(Cc4ccc(F)cc4)cnc3c2O)CC1 [Compound A-82, 3-(4-Fluorobenzyl)-8-hydroxy[1,6]naphthylidine-7-carboxylic acid 1-acetylpiperidine-4-yl ester]	0.26	163 to 165	–
CNC(=O)c1nc(C#CCO)c2cc(Cc3ccc(F)cc3)cnc2c1O [Compound A-98, 3-(4-Fluorobenzyl)-8-hydroxy-5-(3-hydroxy-1-propyn-1-yl)-[1,6]naphthylidine-7-carboxylic acid methyl amide]	0.52	185	–
COC(=O)c1nc(NC(=O)C(=O)N(C)C)c2cc(Cc3ccc(F)cc3)cnc2c1O [Compound A-115, 5-[[(Dimethylamino)oxalyl]amino]-3-(4-fluorobenzyl)-8-hydroxy[1,6]naphthylidine-7-carboxylic acid methyl ester]	0.422	–	–
COC(=O)c1cc(C(=O)O)c2cc(Cc3ccc(F)cc3)cnc2c1O [Compound I-3, 3-(4-Fluorobenzyl)-8-hydroxy-quinoline-5,7-dicarboxylic acid 7-methylester]	0.394	237 to 239	–
O=C(O)c1cc(C(=O)O)c2cc(Cc3ccc(F)cc3)cnc2c1O [Compound I-4, 3-(4-Fluorobenzyl)-8-hydroxyquinoline-5,7-dicarboxylic acid]	0.352	279 to 282	–
COC(=O)c1cc(C(=O)NCCO)c2cc(Cc3ccc(F)cc3)cnc2c1O [Compound I-5, 3-(4-Fluorobenzyl)-8-hydroxy-5-(2-hydroxyethylcarbamoyl)quinoline-7-carboxylic acid methylester]	0.502	207 to 208	–
COCCNC(=O)c1cc(C(=O)OC)c(O)c2ncc(Cc3ccc(F)cc3)cc12 [Compound I-6]	0.412	152 to 154	–
NC(=O)c1cc(C(=O)O)c(O)c2ncc(Cc3ccc(F)cc3)cc12 [Compound I-7, 5-Carbamoyl-3-(4-fluorobenzyl)-8-hydroxyquinoline-7-carboxylic acid]	0.705	265 to 266	–
COC(=O)c1cc(NC=O)c2cc(Cc3ccc(F)cc3)cnc2c1O [Compound I-13, 3-(4-Fluorobenzyl)-5-formylamino-8-hydroxyquinoline-7-carboxylic acid methyl ester]	1.04	–	–
COC(=O)c1cc(C(=O)N2CCOCC2)c2cc(Cc3ccc(F)cc3)cnc2c1O [Compound I-26, (4-Fluorobenzyl)-8-hydroxy-5-(morpholine-4-carbonyl)quinoline-7-carboxylic acid methyl ester]	–	–	0.37
COC(=O)c1cc(C(=O)NC(C)C(=O)OC)c2cc(Cc3ccc(F)cc3)cnc2c1O (stereo not drawn) [Compound I-54, (4-Fluorobenzyl)-8-hydroxy-5-(1-methoxycarbonylethylcarbamoyl)quinoline-7-carboxylic acid methyl ester]	–	–	0.38
COC(=O)c1cc(C(=O)NCCCO)c2cc(Cc3ccc(F)cc3)cnc2c1O [Compound I-58, 3-(4-Fluorobenzyl)-8-hydroxy-5-(3-hydroxypropylcarbamoyl)quinoline-7-carboxylic acid methyl ester]	0.388	–	–
